{"source": "patent US8513274B2", "about": "“Ellipticine compounds for treating obesity” (Etzem, Inc., priority 2009, dated 2013)", "experiment": "Reduction of body weight with ellipticine hydrochloride in mice", "assay_type": "in vivo", "details": "initial body weight 30 g, every weekday", "experimental": "In order to determine the effect of ellipticine and ellipticine derivatives in reducing body weight, ellipticine hydrochloride was administered to mice every weekday for 4 weeks (30 days) and their body weights tracked. Ellipticine hydrochloride was solubilized in saline and administered via intraperitoneal injection. Animals were weighed weekly.\nMice (6 per group) were divided into seven groups and given one of the following treatments: • 1. 10 mg ellipticine hydrochloride/kg body weight (Low) • 2. 20 mg ellipticine hydrochloride/kg body weight (Mid) • 3. 30 mg ellipticine hydrochloride/kg body weight (High) • 4. Saline • 5. 3 mg/kg body weight (Positive control 2) • 6. 5 mg/kg body weight (Positive control low) • 7. 10 mg/kg body weight (Positive control high)", "note": "Where a name gives a salt, the structure may show the parent alone.", "data": [{"compound": "Cc1c2ccncc2c(C)c2c1[nH]c1ccccc12", "note": "[ellipticine hydrochloride]", "values": [{"measurement": "body weight loss (decrease of body weight)", "setting": "10 mg/kg (Low) intraperitoneal in saline, end of 4 weeks", "value": "more than 18%"}, {"measurement": "body weight loss", "setting": "20 mg/kg (Mid) intraperitoneal in saline, end of week 3, animals then sacrificed", "value": "more than 33%"}, {"measurement": "reduction in body weight", "setting": "30 mg/kg (High) intraperitoneal in saline, end of week 2, animals then sacrificed", "value": 28, "unit": "%"}]}]}
